Source: patent US20240384268A1, “Oligonucleotides” (Hudson Institute of Medical Research, priority 2021, published 2024)
In the oligonucleotide strings, read from the 5' end, every base follows the letter of its sugar. An asterisk marks phosphorothioate; unmarked linkages are phosphodiester. Other units and linkages are bracketed, terminal groups are in braces. A string of capitals states the bases alone. d = 2'-deoxy (DNA); m = 2'-O-methyl

Key:
[1] = target: T1, mouse cGAS (Mus musculus, UniProt Q8C6L5); assay: ISD45-driven ISRE-luciferase in mouse LL171 cells; type: cell-based; details: for effect on ISD-driven ISRE-luciferase, LNA and MOE ASOs (in words): 200 nM or indicated concentrations, ~30 min, ISD overnight (FIG. 22-24); for inhibition of ISD45-driven ISRE-luciferase (in words): 2′OMe or PS oligos 50-600 nM, ISD45 2.5 μg/ml overnight
T1 construct: endogenous in cells; host or cells: LL171 (mouse L929 cells with ISRE-Luciferase)
T1 sequence (Q8C6L5 whole entry): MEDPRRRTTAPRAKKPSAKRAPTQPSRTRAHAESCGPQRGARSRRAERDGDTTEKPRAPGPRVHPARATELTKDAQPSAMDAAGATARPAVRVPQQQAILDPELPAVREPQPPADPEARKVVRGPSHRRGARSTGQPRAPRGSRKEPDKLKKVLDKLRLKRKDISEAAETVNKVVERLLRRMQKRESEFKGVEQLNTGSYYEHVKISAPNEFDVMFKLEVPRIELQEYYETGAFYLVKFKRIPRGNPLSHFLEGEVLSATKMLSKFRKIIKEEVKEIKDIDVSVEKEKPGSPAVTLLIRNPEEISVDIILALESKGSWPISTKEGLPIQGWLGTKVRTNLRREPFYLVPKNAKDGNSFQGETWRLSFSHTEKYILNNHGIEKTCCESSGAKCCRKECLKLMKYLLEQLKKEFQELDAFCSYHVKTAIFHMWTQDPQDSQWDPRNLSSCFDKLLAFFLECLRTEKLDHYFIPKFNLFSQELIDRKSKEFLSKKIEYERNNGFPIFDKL
Description: In such examples, inhibition of cGAS activity can be identified by observation of an overall decreased cGAS response of the cell population, or a lower proportion of cells having cGAS-positive activity as compared to positive control condition in which cells are treated with cGAS agonist in the absence of the oligonucleotide (or in the presence of an appropriate control inhibitory agent). In one example, THP-1 or HT-29 cells are transfected with ISD70 and incubated with an oligonucleotide. cGAS activity can then be determined by cytokine (e.g., IP-10 and/or IFNβ) expression (e.g., gene and/or protein expression) and/or secretion levels, such as by ELISA. A similar assay can be performed with LL171 cells transfected with ISD45. […] By way of example, cGAS enzymatic activity may be assessed in vitro using recombinant cGAS and then measuring activity thereof by way of a cGAMP ELISA.
For cGAS stimulations, cells were treated for indicated duration with ASOs, prior to transfection with ISD70 (human cells) or ISD45 (mouse cells) (the ASOs were not washed off prior to ISD transfection unless otherwise indicated). The cGAS ligands ISD45 (Stetson and Medzhitov, 2006) and ISD70 (also known as VACV-70 (Unterholzner et al., 2010)) (Table 1) were resuspended as follows: 5 1d of sense and 5 μl of antisense strands at 10 μg/μl were added to 90 μl PBS under sterile conditions, heated at 75° C. for 30 min, prior to letting cool down at room temperature and aliquoting (stock at 1 μg/1 l). The ISDs were transfected at a concentration of […] at a ratio of 1 μg:1 μl with Lipofectamine 2000 in Opti-MEM (Thermo Fisher Scientific). HEK-TLR3, HEK-TLR7 and […] were treated with indicated concentration of ASOs for 20-50 min, prior to stimulation with poly(I:C) (Invivogen), R848 (Invivogen), Motolimod (MedChemExpress) and the Class B CpG oligonucleotides ODN 2006 (synthesised by IDT and resuspended in RNase-free TE buffer [Table 1]), respectively. The TLR2/1 agonist PAM3CSK4 (Invivogen), the TLR4 agonist lipopolysaccharide (Invivogen), the Class B CpG oligonucleotides ODN 1826 (synthesised by IDT and resuspended in RNase-free TE buffer), the mouse Sting agonist DMXAA (Cayman) and the human STING agonist (compound #3 from (Raanjulu et al., 2018), referred to as GSK herein—kind gift from Cancer Therapeutics CRC, Australia) were used at indicated concentrations. Aspirin (Sigma—A2093) was resuspended in pure medium to 10 mM, filter sterilised and added to the cells at 2 mM final. All ASOs were synthesised by Integrated DNA Technologies (IDT), and resuspended in RNase-free TE buffer, pH 8.0 (Thermo Fisher Scientific). Cell viability was assessed by adding 1× fresh resazurin solution to the wells (10λ solution made up with 7 mg resazurin [Sigma—R7017] dissolved in 3.5 ml PBS, sterile filtered at […]) for 4 h, prior to reading at with a Fluostar OPTIMA (BMG LABTECH) plate-reader (fluorescence: Excitation 535 nm, Emission 590); wells with medium only and 1× resazurin were used as blanks.
Following transfection, the cells were collected from the 6-wells and aliquoted into 96-wells, just before ASO and overnight TLR stimulation (as above described).

[2] = target: T2, TLR7 (Mus musculus, UniProt P58681); assay: Guanosine-induced TNFα in primary BMDMs; type: cell-based; design: endogenous in cells; host or cells: primary BMDMs from wild-type mice; details: WT primary BMDMs; 200 nM ASO 30 min; 500 μM Guanosine overnight
T2 sequence (P58681 27-1050): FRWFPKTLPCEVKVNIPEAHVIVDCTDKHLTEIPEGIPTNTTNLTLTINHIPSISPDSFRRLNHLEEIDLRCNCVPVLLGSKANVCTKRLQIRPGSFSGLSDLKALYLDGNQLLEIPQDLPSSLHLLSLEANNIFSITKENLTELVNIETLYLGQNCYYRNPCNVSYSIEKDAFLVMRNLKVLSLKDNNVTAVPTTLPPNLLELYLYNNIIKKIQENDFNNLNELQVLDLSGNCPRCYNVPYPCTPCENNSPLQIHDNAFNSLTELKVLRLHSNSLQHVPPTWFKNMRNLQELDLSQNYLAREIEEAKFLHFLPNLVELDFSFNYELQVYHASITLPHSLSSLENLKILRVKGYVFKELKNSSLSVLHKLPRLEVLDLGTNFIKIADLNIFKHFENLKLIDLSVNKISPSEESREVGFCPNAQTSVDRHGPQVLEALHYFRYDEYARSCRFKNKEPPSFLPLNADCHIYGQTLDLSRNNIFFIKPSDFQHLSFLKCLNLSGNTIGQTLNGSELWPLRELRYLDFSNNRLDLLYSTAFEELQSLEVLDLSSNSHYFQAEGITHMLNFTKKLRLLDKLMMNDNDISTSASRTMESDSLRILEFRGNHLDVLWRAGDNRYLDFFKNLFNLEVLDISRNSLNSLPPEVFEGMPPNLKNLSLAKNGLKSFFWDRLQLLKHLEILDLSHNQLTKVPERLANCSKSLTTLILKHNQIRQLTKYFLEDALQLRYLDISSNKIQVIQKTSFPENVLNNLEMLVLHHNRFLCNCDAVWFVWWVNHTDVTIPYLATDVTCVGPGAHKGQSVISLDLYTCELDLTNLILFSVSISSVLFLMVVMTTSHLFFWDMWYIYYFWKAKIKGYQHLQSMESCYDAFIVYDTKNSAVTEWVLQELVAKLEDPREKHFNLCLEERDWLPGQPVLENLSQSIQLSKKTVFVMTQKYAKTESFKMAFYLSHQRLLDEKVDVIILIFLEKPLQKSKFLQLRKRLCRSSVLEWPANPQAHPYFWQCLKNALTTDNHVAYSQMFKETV

| Substance | effect on ISD-driven ISRE-luciferase, LNA and MOE ASOs (in words) [1] | inhibition of ISD45-driven ISRE-luciferase (in words) [1] | TNFα production induced by guanosine (in words) [2] |
| --- | --- | --- | --- |
| GCAGGCTCAGTGATGT (antisense; LNA-modified, pattern not given here) [CTNN2B-1642 LNA V1] | increased potentiation of ISD sensing |  |  |
| GTGTCTGGAAGCTTCC (antisense; LNA-modified, pattern not given here) [CTNN2B-809 LNA V1] | strongly potentiating the ISRE-Luciferase signal |  |  |
| mC*mG*mU*T*T*C*C*C*C*C*C*C*C*C*C*C*C*C*C*C (CGUTTCCCCCCCCCCCCCCC; antisense; sugars from the 5' end m3 d17, all phosphorothioate, methylation of C not given here) [[C2]Mut1-v3-dC] |  | lacked significant inhibitory activity | did not |
| mG*mC*mG*mG*mU*A*T*C*C*A*T*G*T*C*C*mC*mA*mG*mG*mC (mG*mC*mG*mG*mU*dA*dT*dC*dC*dA*dT*dG*dT*dC*dC*mC*mA*mG*mG*mC; antisense) [C2-Mut1] |  | significantly more inhibitory | significantly inhibiting TNFα levels |
| mG*mG*mU*A*T*C*C*C*C*C*C*C*C*C*C*C*C*C*C*C (GGUATCCCCCCCCCCCCCCC; antisense; sugars from the 5' end m3 d17, all phosphorothioate, methylation of C not given here) [[C2]Mut1-dC] |  | significantly more inhibitory than its precursor dC20 | significantly inhibiting TNFα levels |
